Results reported in US10844070B2, “Peripherally restricted GABA positive allosteric modulators for the treatment of irritable bowel syndrome and other ailments of the peripheral nervous system” (The Johns Hopkins University, priority 2014, dated 2020).
Entries after “also recorded” stand apart in the source; their conditions may differ.

Legend:
Type in all cases: in vivo
[1] = tested on: C57B/6 mice; test: Whole gut transit time (WGTT), carmine red gavage; conditions: 1, 3 and 10 mg/kg by gavage in 50% propylene glycol; statistically significant at all doses
Protocol: Dose responses of the effect of Compound 1 on the whole gut transit time (WGTT) were examined. Compound 1 (0, 1, 3 and 10 mg/kg) in 50% propylene glycol was administrated by gavage (5 ml/kg), followed by gavage of 0.2 ml carmine red solution (6% carmine red in 0.5% methylcellulose) into C57B/6 mice. Mice were then placed in a white cardboard box and the time was recorded as time 0. The color of stool was observed every 10 min until the red dye appeared in stool. The time that first red stool appears was recorded as the ending time. The difference between the ending time and time 0 is used to present WGTT (min).

[2] = tested on: C57B/6 mice; test: Distal colon transit time (DCTT), glass bead expulsion; conditions: 3 mg/kg gavage
Protocol: We examined the time course of Compound 1 on distal colon transit time (DCTT) in C57B/6 mice to assess the colon motility. DCTT was performed by gently pushing a 2 mm glass bead into rectal 2 cm and then placing the mouse into a white box (time 0). The time that the glass bead was released from rectal is presented as DCTT (min). Mice were gavaged with 0 or 3 mg/kg of Compound 1 and DTCC was conducted at 30, 60, 90 and 120 min after the administration of Compound 1. […] The increase in the DCTT reached a peak at 90 min and returned at 2 hours after the administration of Compound 1 (FIG. 2).

[3] = Stool composition (total stool weight, water content); conditions: stools collected for 3 hours
Protocol: After gavage of Compound 1 (3 and 10 mg/kg), stools were collected immediately after expulsion for 3 hours. The wet stools were weighted as total stool weight followed by dry at 65° C. for 24 hours and weight as dry stool weight. The percent of water content in the stool was calculated by (total stool weight-dry stool weight)/total stool weight x 100.

[4] = tested on: IBS mice; test: Pain sensitivity in IBS mouse model (VMR to colorectal distension)
Protocol: IBS visceral pain model, induced by neonatal rectal irritation. Colonic pain sensitivity to graded colorectal balloon distension (CRD, 15, 30, 50 and 70 mmHg) was determined by visceromotor response (VMR) measured by electromyography of external oblique muscle.

[5] = Measurement of brain and plasma levels by LC/MS; conditions: mice, 10 mg/kg oral gavage, after 30 minutes
Protocol: Compound 1 was administered to 5 mice at a dose of 10 mg/kg as a solution in 50% propylene glycol by oral gavage (5 ml/kg), After 30 minutes, mice were sacrificed and plasma and brain were harvested. The concentration of Compound 1 in plasma and brain were measured by LC/MS.

Structure (SMILES): O=C(O)c1nc2n(n1)-c1ccc(Cl)cc1C(c1ccccc1F)=NC2 [Compound 1, 8-Chloro-6-(2-fluorophenyl)-4H-[1,2,4]triazolo[1,5-a][1,4]benzodiazepine-2-carboxylic acid]
- effect on whole gut transit time (WGTT) [1]: dose-dependently increased WGTT
- time at which DCTT returned after administration [2]: 2 h
- time at which the increase in DCTT reached a peak [2]: 90 min
- effect on distal colon transit time (DCTT) ([2]; as early as 30 min after gavage): significantly increased the DCTT
- effect on percent of water content in the stool ([3]; 3 mg/kg gavage): not
- effect on total stool weight ([3]; 3 mg/kg gavage): not
- effect on percent of water content in the stool ([3]; 10 mg/kg gavage): significantly reduced
- effect on total stool weight ([3]; 10 mg/kg gavage): significantly reduced
- effect on hyperalgesia (VMR to CRD) ([4]; IBS mice, 10 mg/kg, Two-Way ANOVA): significantly attenuated the hyperalgesia; also recorded: significantly reduced
- effect on pain sensitivity (VMR to CRD) ([4]; control mice, 10 mg/kg (data not shown)): no effect was observed
- average plasma concentration [5]: 1061+189 nM
- concentration at 30 min ([5]; mouse, brain, limit of quantitation 62.5 nM): < 62.5 nM
